Laboratory results from ChEMBL document CHEMBL4390652, “Design, biological evaluation and X-ray crystallography of nanomolar multifunctional ligands targeting simultaneously acetylcholinesterase and glycogen synthase kinase-3” (Eur J Med Chem, 2019).

Legend:
[1] = biological target: Serine/threonine-protein kinase Chk2 (Homo sapiens) (UniProt O96017); test: Binding affinity to wild-type human partial length CHEK2 (S253 to E574 residues) expressed in bacterial expression system assessed as residual binding level at 10 uM by Kinomescan method relative to control
Caco-2 = test: Cytotoxicity against human Caco2 cells assessed as growth inhibition incubated for 48 hrs by Hoechst 33342 staining based assay; assay type: cell-based; settings: Caco-2, 48 h
[2] = biological target: Cyclin-dependent kinase-like 3 (Homo sapiens) (UniProt Q8IVW4); test: Binding affinity to wild-type human partial length CDKL3 (M1 to D327 residues) expressed in bacterial expression system assessed as residual binding level at 10 uM by Kinomescan method relative to control
[3] = biological target: Inhibitor of nuclear factor kappa-B kinase subunit alpha (Homo sapiens) (UniProt O15111); test: Binding affinity to wild-type human full length IKK-alpha (M1 to E745 residues) expressed in mammalian expression system assessed as residual binding level at 10 uM by Kinomescan method relative to control
[4] = biological target: Serine/threonine-protein kinase 36 (Homo sapiens) (UniProt Q9NRP7); test: Binding affinity to wild-type human partial length STK36 (M1 to T271 residues) expressed in bacterial expression system assessed as residual binding level at 10 uM by Kinomescan method relative to control
[5] = biological target: Serine/threonine-protein kinase Nek1 (Homo sapiens) (UniProt Q96PY6); test: Binding affinity to wild-type human partial length NEK1 (M1 to K278 residues) expressed in bacterial expression system assessed as residual binding level at 10 uM by Kinomescan method relative to control
[6] = biological target: Serine/threonine-protein kinase TAO1 (Homo sapiens) (UniProt Q7L7X3); test: Binding affinity to wild-type human partial length TAOK1 (M1 to A320 residues) expressed in mammalian expression system assessed as residual binding level at 10 uM by Kinomescan method relative to control
PC-3 = test: Cytotoxicity against human PC3 cells assessed as growth inhibition incubated for 48 hrs by Hoechst 33342 staining based assay; assay type: cell-based; settings: PC-3, 48 h
[7] = system: Mast/stem cell growth factor receptor Kit (Homo sapiens), P10721 [D816H]; test: Binding affinity to human partial length KIT D816H mutant (I571 to D952 residues) expressed in mammalian expression system assessed as residual binding level at 10 uM by Kinomescan method relative to control
[8] = biological target: Non-receptor tyrosine-protein kinase TNK1 (Homo sapiens) (UniProt Q13470); test: Binding affinity to wild-type human full length TNK1 (M1 to P661 residues) expressed in bacterial expression system assessed as residual binding level at 10 uM by Kinomescan method relative to control
[9] = biological target: Mitogen-activated protein kinase 4 (Homo sapiens) (UniProt P31152); test: Binding affinity to wild-type human partial length ERK4 (M1 to L365 residues) expressed in bacterial expression system assessed as residual binding level at 10 uM by Kinomescan method relative to control
[10] = biological target: Protein kinase C delta type (Homo sapiens) (UniProt Q05655); test: Binding affinity to wild-type human partial length PRKCD (Q328 to D676 residues) expressed in bacterial expression system assessed as residual binding level at 10 uM by Kinomescan method relative to control
[11] = biological target: Serine/threonine-protein kinase PAK 1 (Homo sapiens) (UniProt Q13153); test: Binding affinity to wild-type human partial length PAK1 (S149 to H545 residues) expressed in bacterial expression system assessed as residual binding level at 10 uM by Kinomescan method relative to control
[12] = biological target: Phosphatidylinositol 4,5-bisphosphate 3-kinase catalytic subunit beta isoform (Homo sapiens) (UniProt P42338); test: Binding affinity to wild-type human partial length PIK3CB (P118 to S1070 residues) expressed in mammalian expression system assessed as residual binding level at 10 uM by Kinomescan method relative to control
[13] = biological target: Mitogen-activated protein kinase 15 (Homo sapiens) (UniProt Q8TD08); test: Binding affinity to wild-type human partial length ERK8 (M1 to P437 residues) expressed in bacterial expression system assessed as residual binding level at 10 uM by Kinomescan method relative to control
[14] = biological target: Tyrosine-protein kinase Blk (Homo sapiens) (UniProt P51451); test: Binding affinity to wild-type human partial length BLK (G211 to L503 residues) expressed in bacterial expression system assessed as residual binding level at 10 uM by Kinomescan method relative to control
[15] = biological target: Dual specificity tyrosine-phosphorylation-regulated kinase 1B (Homo sapiens) (UniProt Q9Y463); test: Binding affinity to wild-type human full length DYRK1B (M1 to S629 residues) expressed in bacterial expression system assessed as residual binding level at 10 uM by Kinomescan method relative to control
[16] = biological target: cGMP-dependent protein kinase 2 (Homo sapiens) (UniProt Q13237); test: Binding affinity to wild-type human partial length PRKG2 (S422 to F762 residues) expressed in mammalian expression system assessed as residual binding level at 10 uM by Kinomescan method relative to control
[17] = biological target: Protein kinase C theta type (Homo sapiens) (UniProt Q04759); test: Binding affinity to wild-type human partial length PRKCQ (L350 to S706 residues) expressed in bacterial expression system assessed as residual binding level at 10 uM by Kinomescan method relative to control
[18] = system: Receptor-type tyrosine-protein kinase FLT3 (Homo sapiens), P36888 [N841I]; test: Binding affinity to human partial length FLT3 N841I mutant (V592 to Y969 residues) expressed in bacterial expression system assessed as residual binding level at 10 uM by Kinomescan method relative to control
[19] = biological target: Cyclin-dependent kinase-like 5 (Homo sapiens) (UniProt O76039); test: Binding affinity to wild-type human partial length CDKL5 (M1 to S337 residues) expressed in mammalian expression system assessed as residual binding level at 10 uM by Kinomescan method relative to control
[20] = biological target: Activin receptor type-1 (Homo sapiens) (UniProt Q04771); test: Binding affinity to wild-type human ACVR1 (C188 to C509 residues) expressed in bacterial expression system assessed as residual binding level at 10 uM by Kinomescan method relative to control
[21] = biological target: ALK tyrosine kinase receptor (Homo sapiens) (UniProt Q9UM73); test: Binding affinity to wild-type human partial length ALK (I1088 to E1409 residues) expressed in mammalian expression system assessed as residual binding level at 10 uM by Kinomescan method relative to control
[22] = biological target: Ephrin type-A receptor 2 (Homo sapiens) (UniProt P29317); test: Binding affinity to wild-type human partial length EPHA2 (T593 to V891 residues) expressed in bacterial expression system assessed as residual binding level at 10 uM by Kinomescan method relative to control
[23] = biological target: Calcium/calmodulin-dependent protein kinase type II subunit gamma (Homo sapiens) (UniProt Q13555); test: Binding affinity to wild-type human partial length CAMK2G (R9 to A303 residues) expressed in bacterial expression system assessed as residual binding level at 10 uM by Kinomescan method relative to control

Sequence of cGMP-dependent protein kinase 2 (Homo sapiens) (Q13237 whole entry, the tested form may be a part): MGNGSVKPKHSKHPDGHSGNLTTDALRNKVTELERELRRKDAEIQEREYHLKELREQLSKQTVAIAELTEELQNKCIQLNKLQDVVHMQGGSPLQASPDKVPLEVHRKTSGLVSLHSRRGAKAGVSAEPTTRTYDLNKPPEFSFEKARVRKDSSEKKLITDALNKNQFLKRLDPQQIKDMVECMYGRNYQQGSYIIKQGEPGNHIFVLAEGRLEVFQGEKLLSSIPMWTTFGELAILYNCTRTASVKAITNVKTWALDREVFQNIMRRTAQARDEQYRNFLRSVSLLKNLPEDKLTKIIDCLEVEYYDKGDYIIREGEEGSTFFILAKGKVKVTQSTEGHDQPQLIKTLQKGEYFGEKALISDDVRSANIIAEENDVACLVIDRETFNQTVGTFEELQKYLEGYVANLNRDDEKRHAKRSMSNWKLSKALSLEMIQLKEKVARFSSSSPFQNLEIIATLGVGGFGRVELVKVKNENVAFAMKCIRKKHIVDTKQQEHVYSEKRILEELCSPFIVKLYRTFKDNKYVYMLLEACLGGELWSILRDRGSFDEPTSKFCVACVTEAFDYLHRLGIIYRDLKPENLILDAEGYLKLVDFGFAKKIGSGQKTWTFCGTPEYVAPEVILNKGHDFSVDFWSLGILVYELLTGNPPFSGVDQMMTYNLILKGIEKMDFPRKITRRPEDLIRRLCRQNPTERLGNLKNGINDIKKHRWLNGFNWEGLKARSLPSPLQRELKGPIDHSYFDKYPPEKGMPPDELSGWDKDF
Sequence of Non-receptor tyrosine-protein kinase TNK1 (Homo sapiens) (Q13470 whole entry, the tested form may be a part): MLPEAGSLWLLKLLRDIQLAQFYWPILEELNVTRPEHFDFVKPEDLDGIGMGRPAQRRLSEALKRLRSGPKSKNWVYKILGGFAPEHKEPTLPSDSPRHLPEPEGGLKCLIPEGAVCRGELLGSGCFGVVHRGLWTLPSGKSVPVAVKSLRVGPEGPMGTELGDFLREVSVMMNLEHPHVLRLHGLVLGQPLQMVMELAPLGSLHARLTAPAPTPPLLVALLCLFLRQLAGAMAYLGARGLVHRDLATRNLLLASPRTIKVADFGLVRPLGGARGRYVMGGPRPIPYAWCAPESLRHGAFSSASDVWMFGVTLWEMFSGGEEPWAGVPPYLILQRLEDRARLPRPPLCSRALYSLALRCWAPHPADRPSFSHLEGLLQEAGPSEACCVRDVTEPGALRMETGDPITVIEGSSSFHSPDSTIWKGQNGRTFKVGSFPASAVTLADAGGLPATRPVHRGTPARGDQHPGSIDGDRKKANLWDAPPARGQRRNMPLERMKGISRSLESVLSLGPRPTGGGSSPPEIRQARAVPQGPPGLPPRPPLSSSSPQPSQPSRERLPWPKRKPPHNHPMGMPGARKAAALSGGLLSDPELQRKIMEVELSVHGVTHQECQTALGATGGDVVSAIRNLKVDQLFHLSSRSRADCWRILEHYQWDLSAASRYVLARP
Sequence of Serine/threonine-protein kinase TAO1 (Homo sapiens) (Q7L7X3 whole entry, the tested form may be a part): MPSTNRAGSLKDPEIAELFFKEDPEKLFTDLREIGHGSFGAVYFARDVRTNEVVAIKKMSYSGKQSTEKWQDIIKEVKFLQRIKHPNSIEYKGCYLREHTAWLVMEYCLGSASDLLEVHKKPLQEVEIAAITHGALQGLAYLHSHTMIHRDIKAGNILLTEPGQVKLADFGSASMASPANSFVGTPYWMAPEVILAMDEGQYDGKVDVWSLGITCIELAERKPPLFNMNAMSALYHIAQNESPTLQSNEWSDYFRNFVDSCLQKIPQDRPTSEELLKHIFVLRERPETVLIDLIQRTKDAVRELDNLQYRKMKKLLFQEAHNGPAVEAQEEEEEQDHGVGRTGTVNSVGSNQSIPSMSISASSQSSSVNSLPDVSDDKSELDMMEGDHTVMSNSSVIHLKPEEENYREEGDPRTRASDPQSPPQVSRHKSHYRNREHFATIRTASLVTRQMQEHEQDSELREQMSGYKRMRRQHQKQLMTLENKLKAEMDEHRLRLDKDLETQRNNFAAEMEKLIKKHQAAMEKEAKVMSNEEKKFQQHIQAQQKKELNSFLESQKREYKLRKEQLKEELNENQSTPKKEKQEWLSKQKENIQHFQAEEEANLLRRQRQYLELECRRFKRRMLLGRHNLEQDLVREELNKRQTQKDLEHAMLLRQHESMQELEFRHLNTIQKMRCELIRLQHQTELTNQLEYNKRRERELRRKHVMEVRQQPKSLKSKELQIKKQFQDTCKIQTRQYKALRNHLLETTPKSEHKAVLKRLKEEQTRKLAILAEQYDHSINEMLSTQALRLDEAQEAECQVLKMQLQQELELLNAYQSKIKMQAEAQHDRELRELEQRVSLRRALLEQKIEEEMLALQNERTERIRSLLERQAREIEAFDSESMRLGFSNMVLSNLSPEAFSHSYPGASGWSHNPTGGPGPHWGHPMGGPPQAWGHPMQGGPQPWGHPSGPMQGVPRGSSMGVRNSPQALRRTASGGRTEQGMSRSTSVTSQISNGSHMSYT
Sequence of Ephrin type-A receptor 2 (Homo sapiens) (P29317 whole entry, the tested form may be a part): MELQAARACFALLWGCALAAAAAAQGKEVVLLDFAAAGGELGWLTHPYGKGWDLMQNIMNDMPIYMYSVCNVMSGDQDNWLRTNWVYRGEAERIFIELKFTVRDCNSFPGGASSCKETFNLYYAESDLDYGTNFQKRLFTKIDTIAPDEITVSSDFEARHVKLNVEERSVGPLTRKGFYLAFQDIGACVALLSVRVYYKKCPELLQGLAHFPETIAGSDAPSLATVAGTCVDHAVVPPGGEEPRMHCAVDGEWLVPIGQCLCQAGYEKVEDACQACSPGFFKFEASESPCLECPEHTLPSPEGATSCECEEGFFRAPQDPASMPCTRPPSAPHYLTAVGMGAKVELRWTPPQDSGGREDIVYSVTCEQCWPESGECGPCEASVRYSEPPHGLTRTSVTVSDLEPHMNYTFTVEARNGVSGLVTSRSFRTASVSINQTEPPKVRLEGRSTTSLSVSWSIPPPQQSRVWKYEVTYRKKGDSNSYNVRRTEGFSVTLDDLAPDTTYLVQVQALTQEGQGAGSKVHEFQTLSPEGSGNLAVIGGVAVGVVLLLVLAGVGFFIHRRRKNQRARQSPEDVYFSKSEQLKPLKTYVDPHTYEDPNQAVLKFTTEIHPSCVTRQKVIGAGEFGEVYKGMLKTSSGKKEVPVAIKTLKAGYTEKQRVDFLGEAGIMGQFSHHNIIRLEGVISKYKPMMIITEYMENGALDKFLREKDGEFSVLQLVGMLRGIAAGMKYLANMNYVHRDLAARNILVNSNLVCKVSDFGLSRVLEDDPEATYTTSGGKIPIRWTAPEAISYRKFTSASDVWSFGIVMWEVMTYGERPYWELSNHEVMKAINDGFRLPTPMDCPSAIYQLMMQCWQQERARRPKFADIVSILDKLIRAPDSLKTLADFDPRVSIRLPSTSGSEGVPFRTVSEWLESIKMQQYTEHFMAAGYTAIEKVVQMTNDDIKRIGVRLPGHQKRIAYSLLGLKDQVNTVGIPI
Sequence of Cyclin-dependent kinase-like 3 (Homo sapiens) (Q8IVW4 whole entry, looked up, the tested form may be a part): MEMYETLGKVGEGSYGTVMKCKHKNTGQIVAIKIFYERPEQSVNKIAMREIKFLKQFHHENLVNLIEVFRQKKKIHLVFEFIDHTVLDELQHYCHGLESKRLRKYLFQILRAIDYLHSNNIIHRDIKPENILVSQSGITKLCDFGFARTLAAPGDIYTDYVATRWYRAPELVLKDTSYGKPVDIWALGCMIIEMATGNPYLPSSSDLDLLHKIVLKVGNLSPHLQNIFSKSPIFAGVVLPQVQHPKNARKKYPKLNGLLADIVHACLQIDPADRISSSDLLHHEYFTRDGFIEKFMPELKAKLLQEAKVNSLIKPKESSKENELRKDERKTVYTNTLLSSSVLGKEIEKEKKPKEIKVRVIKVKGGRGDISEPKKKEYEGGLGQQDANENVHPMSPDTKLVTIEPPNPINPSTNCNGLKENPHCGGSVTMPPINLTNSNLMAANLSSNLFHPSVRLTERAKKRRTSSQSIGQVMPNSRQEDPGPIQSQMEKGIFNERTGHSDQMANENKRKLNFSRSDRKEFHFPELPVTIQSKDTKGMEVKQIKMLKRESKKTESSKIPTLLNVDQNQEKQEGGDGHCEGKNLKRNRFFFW
Sequence of Protein kinase C delta type (Homo sapiens) (Q05655 whole entry, looked up, the tested form may be a part): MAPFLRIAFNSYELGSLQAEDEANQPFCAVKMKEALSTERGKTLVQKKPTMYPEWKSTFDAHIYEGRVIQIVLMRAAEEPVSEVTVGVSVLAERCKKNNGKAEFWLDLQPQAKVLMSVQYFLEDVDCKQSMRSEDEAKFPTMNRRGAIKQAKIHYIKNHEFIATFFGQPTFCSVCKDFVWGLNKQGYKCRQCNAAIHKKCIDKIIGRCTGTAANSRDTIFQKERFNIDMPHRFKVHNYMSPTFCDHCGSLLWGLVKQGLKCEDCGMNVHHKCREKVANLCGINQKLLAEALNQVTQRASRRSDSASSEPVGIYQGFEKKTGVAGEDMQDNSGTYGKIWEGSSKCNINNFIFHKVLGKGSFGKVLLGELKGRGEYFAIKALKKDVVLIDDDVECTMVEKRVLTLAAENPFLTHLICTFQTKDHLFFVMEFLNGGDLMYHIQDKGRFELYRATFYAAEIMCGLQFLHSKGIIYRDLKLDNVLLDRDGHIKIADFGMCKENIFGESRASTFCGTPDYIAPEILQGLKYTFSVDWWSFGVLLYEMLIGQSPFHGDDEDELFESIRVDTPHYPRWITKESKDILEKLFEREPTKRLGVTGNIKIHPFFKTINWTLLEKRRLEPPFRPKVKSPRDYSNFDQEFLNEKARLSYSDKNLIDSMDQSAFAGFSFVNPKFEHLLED

O=C(Nc1cc(-c2cn(CCNc3c4c(nc5ccccc35)CCCC4)nn2)ccn1)Nc1cccc2c1C1CCCCN1C2=O (racemic) was tested, and the Activity [1] was 90%, the IC50 (Caco-2) was 3 µM and the Activity [2] was 0%. The Activity [3] was 53%, the Activity [4] was 9.1% and the Activity [5] was 80%. For the same compound, the Activity [6] was 2.6%, the IC50 (PC-3) was 5 µM and the Activity [7] was 2.2%. For the same compound, the Activity [8] was 48%, the Activity [9] was 4.7% and the Activity [10] was 7.3%. It also gave an Activity [11] of 88%, an Activity [12] of 53% and an Activity [13] of 0.05%. For the same compound, the Activity [14] was 44%, the Activity [15] was 3.7% and the Activity [16] was 4.4%. For the same compound, the Activity [17] was 27%, the Activity [18] was 0% and the Activity [19] was 0.35%. For the same compound, the Activity [20] was 49%, the Activity [21] was 100% and the Activity [22] was 91%. For the same compound, the Activity [23] was 64%.
